Series [1] addresses T1, Class 1 phosphodiesterase PDEB1 (Trypanosoma brucei) (UniProt Q8WQX9).
T1 sequence (whole entry): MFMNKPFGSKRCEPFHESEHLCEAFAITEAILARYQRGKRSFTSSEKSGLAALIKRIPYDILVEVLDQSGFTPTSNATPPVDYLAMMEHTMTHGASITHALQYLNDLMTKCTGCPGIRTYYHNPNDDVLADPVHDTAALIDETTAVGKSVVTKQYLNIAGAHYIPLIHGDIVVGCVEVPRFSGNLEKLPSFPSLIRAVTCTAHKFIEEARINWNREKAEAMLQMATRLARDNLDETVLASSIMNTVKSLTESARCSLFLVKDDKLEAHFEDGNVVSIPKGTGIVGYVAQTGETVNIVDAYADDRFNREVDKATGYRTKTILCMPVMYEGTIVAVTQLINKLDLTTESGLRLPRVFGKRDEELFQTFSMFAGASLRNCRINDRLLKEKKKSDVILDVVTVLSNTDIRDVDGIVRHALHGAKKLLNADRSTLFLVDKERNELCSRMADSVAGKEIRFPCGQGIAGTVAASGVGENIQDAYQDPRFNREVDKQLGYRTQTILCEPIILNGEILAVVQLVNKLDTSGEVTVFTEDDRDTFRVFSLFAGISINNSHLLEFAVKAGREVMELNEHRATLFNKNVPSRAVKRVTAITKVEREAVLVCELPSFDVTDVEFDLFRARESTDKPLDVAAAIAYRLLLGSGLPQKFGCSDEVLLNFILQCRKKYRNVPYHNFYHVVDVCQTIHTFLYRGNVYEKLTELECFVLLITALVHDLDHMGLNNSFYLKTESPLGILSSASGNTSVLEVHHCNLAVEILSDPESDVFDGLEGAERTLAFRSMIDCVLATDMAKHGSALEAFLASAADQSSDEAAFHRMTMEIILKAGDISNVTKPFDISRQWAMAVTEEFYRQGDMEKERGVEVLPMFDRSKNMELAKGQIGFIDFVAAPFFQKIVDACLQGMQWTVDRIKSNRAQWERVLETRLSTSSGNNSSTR
Briefly: Inhibition of Trypanosoma brucei recombinant PDEB1 at 10 uM pre-incubated for 5 mins prior to substrate addition.

The target of series [2] is T2, Class 1 phosphodiesterase PDEB1 (Trypanosoma brucei, UniProt Q8WQX9).
T2 sequence (Q8WQX9 whole entry): T1 sequence (whole entry)
Briefly: Inhibition of Trypanosoma brucei recombinant PDEB1 pre-incubated for 5 mins prior to substrate addition.

The test system of the next series is Trypanosoma brucei. Briefly: Antiparasitic activity against Trypanosoma brucei after 22 to 24 hrs by Alamar blue cell viability assay. The format is functional, organism-based.
Series [3] can be described thus: Inhibition of Trypanosoma brucei PDEB2.
A short description of series [4]: Cytotoxicity against mouse NIH/3T3 cells by Alamar blue cell viability assay. The format is cell-based, NIH3T3. The note with it: read-out: TC50 (the source's name).

The structures appear in SMILES notation.

Take `COc1ccc([C@]2(C#N)CC[C@@H](C(=O)O)CC2)cc1OCCCOc1ccccc1`: in series [1], the inhibition stood at 66%. Also, in series [2], the IC50 came out at 11 µM.
With `COc1ccc([C@]2(C#N)CC[C@@H](C(=O)O)CC2)cc1OCc1ccccn1`, the inhibition in series [1] turned out to be 33%.
On the same count and under the same terms, in the case of `COc1ccc([C@]2(C#N)CC[C@H](C(=O)O)CC2)cc1OCc1ccccc1` it was 20%; in that of `COc1ccc(C2(C#N)CCNCC2)cc1OC1CCCC1`, 19%.
Still for that read-out and setting: with `COc1ccc([C@]2(C#N)CC[C@@H](C(=O)OC)CC2)cc1OC1CCCC1` the figure was 31%.
For `COc1ccc(OCCCCOc2cc([C@]3(C#N)CC[C@@H](C(=O)O)CC3)ccc2OC)cc1`, the inhibition in series [1] turned out to be 79%. In addition, the IC50 in series [2] amounted to 3.5 µM.
As for `COc1ccc([C@]2(C#N)CC[C@@H](C(=O)O)CC2)cc1OCCCCOc1ccc(C#N)cc1`, the inhibition in series [1] worked out at 87%. Besides, the IC50 in series [2] was found to be 3.6 µM.
The matching figures for `COc1ccc([C@]2(C#N)CC[C@@H](C(=O)O)CC2)cc1OCCCCCOc1ccccc1`: 54% and 9.8 µM.
As for `COc1ccc([C@]2(C#N)CC[C@H](C(=O)OC)CC2)cc1OC1CCCC1`, in series [1], the inhibition is 26%.
As to `COc1ccc([C@]2(C#N)CC[C@@H](C(=O)O)CC2)cc1OCc1ccccc1`, the inhibition in series [1] amounted to 77%. Further, in series [2], the IC50 turned out to be 12 µM.
As to `CCOC(=O)CN1CCC(C#N)(c2ccc(OC)c(OC3CCCC3)c2)CC1`, the inhibition in series [1] is 6%.
In the case of `COc1ccc([C@]2(C#N)CC[C@@H](C(=O)O)CC2)cc1OCCCCOc1ccc(F)cc1`, the inhibition in series [1] is 79%. Also, the IC50 in series [2] was 9.2 µM.
In the case of `COc1ccc([C@]2(C#N)CC[C@H](C(=O)OC)CC2)cc1OCc1ccccc1`, the inhibition in series [1] was 28%.
`COc1ccc(C2(C#N)CCN(CC(=O)O)CC2)cc1OC1CCCC1`: the inhibition in series [1] was found to be 11%.
`COc1ccc([C@]2(C#N)CC[C@@H](C(=O)O)CC2)cc1OCCCCOc1ccccc1`: in the series with Trypanosoma brucei, the EC50 is 26 µM. In series [3], this compound came in with an IC50 of 2.1 µM. The inhibition in series [1] was determined as 96%. In addition, the CC50 in series [4] is > 50 µM.
As for `COc1ccc([C@]2(C#N)CC[C@@H](C(=O)O)CC2)cc1OC1CCCC1` [CILOMILAST], the EC50 in the series with Trypanosoma brucei was > 50 µM. Besides, in series [4], the CC50 is > 50 µM. Moreover, in series [2], the IC50 was 16 µM.
As to `COc1ccc([C@]2(C#N)CC[C@@H](C(=O)O)CC2)cc1OCCCCOc1ccc(-c2nn[nH]n2)cc1`, in series [1], the inhibition came to 69%. Also, the IC50 in series [2] worked out at 7.9 µM.
Take `COc1ccc([C@]2(C#N)CC[C@H](C(=O)O)CC2)cc1OC1CCCC1`: the inhibition in series [1] was found to be 9.3%.
As to `COc1ccc([C@]2(C#N)CC[C@@H](C(=O)O)CC2)cc1OCc1ccncc1`, in series [1], the inhibition is 11%.
Consider `COc1ccc([C@]2(C#N)CC[C@@H](C(=O)O)CC2)cc1OCCCCOc1ccc(C)cc1`, for which the inhibition in series [1] was 74%. Moreover, the IC50 in series [2] worked out at 4.9 µM.
Regarding `COc1ccc([C@]2(C#N)CC[C@@H](C(=O)OC)CC2)cc1OCc1ccccc1`, in series [1], the inhibition stood at 40%.
